According to publication PMC6720883, “In Vitro Inhibitory Effects of APINACA on Human Major Cytochrome P450, UDP-Glucuronosyltransferase Enzymes, and Drug Transporters” (Molecules, 2019):
Like-named read-outs stand apart in the source and are kept apart here.

Assays:
CYP3A4 = CYP3A4 (Homo sapiens, UniProt P08684); experiment: Time-dependent inhibition kinetics of CYP3A4 midazolam 1′-hydroxylation in human liver microsomes; assay type: in vitro ADME
Procedure: The kinetic parameters for the time-dependent inhibition potency of APINACA against human liver microsomal CYP3A4 activity were evaluated. Ultrapooled human liver microsomes (1 mg/mL) were preincubated with various concentrations of APINACA (final concentrations of 1–40 μM) in 50 mM potassium phosphate buffer (pH 7.4) in the presence of NADPH. Aliquots (10 μL) of the preincubated mixtures were withdrawn 5, 10, 20, and 30 min after incubation was commenced and were added to other tubes containing 2 μM midazolam, 1 mM NADPH, 50 mM potassium phosphate buffer (pH 7.4), and 10 mM MgCl2 in 90-μL reaction mixtures. The second reactions were terminated after 10 min by adding 100 μL of ice cold methanol containing d9-1′-hydroxybufuralol. […] Aliquots (5 μL) of the diluted supernatants were analyzed by LC–MS/MS.
(§1) 12.5 (Systat Software, Inc.; San Jose, CA, USA). […] 1.1 (Systat Software, Inc.).

CYP2A6 = CYP2A6 (Homo sapiens, UniProt P11509); experiment: Inhibition of CYP2A6-mediated coumarin 7-hydroxylase in ultrapooled human liver microsomes; assay type: in vitro ADME
Procedure: (§2) The inhibitory potentials (IC50 values) of APINACA and typical CYP inhibitors on CYP 1A2, 2A6, 2C8, 2C9, 2C19, 2D6, and 3A4 activities in pooled human liver microsomes were evaluated following our previous method using a cocktail of CYP substrates, followed by LC–MS/MS [43]. […] After 3 min of preincubation at 37 °C, the reaction mixtures were incubated for 15 min at 37 °C with the addition of NADPH in a shaking water bath. The reaction was stopped by adding 100 μL of ice cold methanol containing internal standards (d9-1′-hydroxybufuralol for 1′-hydroxybufuralol, 4′-hydroxydiclofenac, 7-hydroxycoumarin, 1′-hydroxymidazolam, and 4′-hydroxymephenytoin; ^13C2, ^15N-acetaminophen for acetaminophen and N-desethylamodiaquine). The incubation mixtures were centrifuged at 13,000× g for 8 min at 4 °C, and 50 μL of each supernatant was diluted with 50 μL of water. Aliquots (5 μL) of the diluted supernatants were analyzed by LC–MS/MS. All assays were performed in triplicate, and the average values were used for subsequent calculations.
(§3) To measure the time-dependent inhibition, human liver microsomes were preincubated with the various concentrations of APINACA (final concentrations of 0.1−100 μM) and NADPH for 30 min at 37 °C. Next, the reaction mixtures were incubated with a seven-CYP probe substrate cocktail or bupropion for 15 min at 37 °C. […]

UGT1A1 = target: T1, UGT1A1 (Homo sapiens, UniProt P22309); experiment: biochemical; assay type: in vitro ADME
T1 construct: […]; tissue Corning Life Sciences
T1 sequence (P22309 26-533): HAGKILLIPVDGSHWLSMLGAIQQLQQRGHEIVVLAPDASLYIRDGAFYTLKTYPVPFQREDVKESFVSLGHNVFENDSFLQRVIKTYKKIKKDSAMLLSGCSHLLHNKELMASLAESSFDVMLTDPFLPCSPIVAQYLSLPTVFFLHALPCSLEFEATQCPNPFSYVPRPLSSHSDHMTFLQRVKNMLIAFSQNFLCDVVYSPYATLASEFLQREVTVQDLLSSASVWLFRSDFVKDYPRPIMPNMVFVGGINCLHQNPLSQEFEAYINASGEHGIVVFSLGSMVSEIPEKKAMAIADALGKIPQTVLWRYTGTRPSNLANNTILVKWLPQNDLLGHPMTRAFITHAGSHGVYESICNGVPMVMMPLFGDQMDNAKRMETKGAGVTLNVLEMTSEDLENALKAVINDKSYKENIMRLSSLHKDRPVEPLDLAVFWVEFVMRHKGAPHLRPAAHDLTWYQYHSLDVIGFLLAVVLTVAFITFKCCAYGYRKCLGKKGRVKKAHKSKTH
Source text: as §1

CYP2D6 = CYP2D6 (Homo sapiens, UniProt P10635); experiment: Inhibition of CYP2D6-mediated bufuralol 1′-hydroxylase in ultrapooled human liver microsomes; assay type: in vitro ADME
Procedure: as §2, §3

CYP2C9 = CYP2C9 (Homo sapiens, UniProt P11712); experiment: Inhibition of CYP2C9-catalyzed diclofenac 4′-hydroxylase in ultrapooled human liver microsomes; assay type: in vitro ADME; settings: CYP2C9 diclofenac 4′-hydroxylase
Procedure: The inhibitory potentials (IC50 values) of APINACA and typical CYP inhibitors on CYP 1A2, 2A6, 2C8, 2C9, 2C19, 2D6, and 3A4 activities in pooled human liver microsomes were evaluated following our previous method using a cocktail of CYP substrates, followed by LC–MS/MS [43]. […]. After 3 min of preincubation at 37 °C, the reaction mixtures were incubated for 15 min at 37 °C with the addition of NADPH in a shaking water bath. The reaction was stopped by adding 100 μL of ice cold methanol containing internal standards (d9-1′-hydroxybufuralol for 1′-hydroxybufuralol, 4′-hydroxydiclofenac, 7-hydroxycoumarin, 1′-hydroxymidazolam, and 4′-hydroxymephenytoin; ^13C2, ^15N-acetaminophen for acetaminophen and N-desethylamodiaquine). […] Aliquots (5 μL) of the diluted supernatants were analyzed by LC–MS/MS.
Next, the reaction mixtures were incubated with a seven-CYP probe substrate cocktail or bupropion for 15 min at 37 °C.
The LC-MS/MS system was comprised of an Agilent 6495 triple quadrupole mass spectrometer coupled with an Agilent 1290 Infinity system (Agilent Technologies, CA, USA). The column and autosampler temperatures were 40 °C and 4 °C, respectively.
The data were processed using Mass Hunter software (Agilent Technologies).
as §1

P-glycoprotein (P-gp) = P-glycoprotein (P-gp) (Homo sapiens, UniProt P08183); experiment: B to A transport of [3-H]digoxin in LLC-PK1-MDR1 cells
Procedure: The cells were seeded onto filter membranes at a density of 2 × 10^5 cells/well for 5 days with TEER values over 450 Ω·cm^2. The B to A transport of 0.1 μM [3-H]digoxin in LLC-PK1-MDR1 cells was measured by adding 1.5 mL of HBSS containing APINACA (final concentrations of 0–100 μM) on the basal side and by adding 0.5 mL of HBSS without APINACA on the apical side of the insert using protocols identical to those described above.
1.1 (Systat Software, Inc.).

Chain of CYP2C9 (P11712 whole entry): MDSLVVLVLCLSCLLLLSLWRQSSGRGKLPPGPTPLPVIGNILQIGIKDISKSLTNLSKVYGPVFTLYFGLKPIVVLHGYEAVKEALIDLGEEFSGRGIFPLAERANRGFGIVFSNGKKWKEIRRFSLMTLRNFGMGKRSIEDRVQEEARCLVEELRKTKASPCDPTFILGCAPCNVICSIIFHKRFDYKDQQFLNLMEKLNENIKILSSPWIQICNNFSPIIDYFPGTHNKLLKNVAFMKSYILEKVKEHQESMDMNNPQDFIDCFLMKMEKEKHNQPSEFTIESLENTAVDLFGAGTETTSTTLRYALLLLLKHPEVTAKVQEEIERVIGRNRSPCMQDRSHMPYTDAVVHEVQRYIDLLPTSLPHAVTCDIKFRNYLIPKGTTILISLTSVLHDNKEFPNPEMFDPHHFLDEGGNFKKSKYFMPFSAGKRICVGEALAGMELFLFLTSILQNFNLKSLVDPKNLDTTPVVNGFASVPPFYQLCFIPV
Chain of CYP2A6 (P11509 whole entry): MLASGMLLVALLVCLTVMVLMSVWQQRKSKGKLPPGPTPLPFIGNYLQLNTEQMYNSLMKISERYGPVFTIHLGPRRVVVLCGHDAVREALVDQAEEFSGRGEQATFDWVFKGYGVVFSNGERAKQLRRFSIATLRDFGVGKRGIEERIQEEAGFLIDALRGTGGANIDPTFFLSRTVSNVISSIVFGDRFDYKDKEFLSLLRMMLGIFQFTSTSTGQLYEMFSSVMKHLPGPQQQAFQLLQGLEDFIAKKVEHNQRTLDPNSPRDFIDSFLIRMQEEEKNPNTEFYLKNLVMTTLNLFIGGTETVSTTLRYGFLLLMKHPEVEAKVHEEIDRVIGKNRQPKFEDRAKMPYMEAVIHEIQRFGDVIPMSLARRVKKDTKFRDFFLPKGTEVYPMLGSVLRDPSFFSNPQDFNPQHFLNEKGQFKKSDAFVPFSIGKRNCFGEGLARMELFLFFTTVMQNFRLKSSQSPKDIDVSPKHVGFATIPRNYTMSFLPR
Chain of CYP3A4 (P08684 2-503): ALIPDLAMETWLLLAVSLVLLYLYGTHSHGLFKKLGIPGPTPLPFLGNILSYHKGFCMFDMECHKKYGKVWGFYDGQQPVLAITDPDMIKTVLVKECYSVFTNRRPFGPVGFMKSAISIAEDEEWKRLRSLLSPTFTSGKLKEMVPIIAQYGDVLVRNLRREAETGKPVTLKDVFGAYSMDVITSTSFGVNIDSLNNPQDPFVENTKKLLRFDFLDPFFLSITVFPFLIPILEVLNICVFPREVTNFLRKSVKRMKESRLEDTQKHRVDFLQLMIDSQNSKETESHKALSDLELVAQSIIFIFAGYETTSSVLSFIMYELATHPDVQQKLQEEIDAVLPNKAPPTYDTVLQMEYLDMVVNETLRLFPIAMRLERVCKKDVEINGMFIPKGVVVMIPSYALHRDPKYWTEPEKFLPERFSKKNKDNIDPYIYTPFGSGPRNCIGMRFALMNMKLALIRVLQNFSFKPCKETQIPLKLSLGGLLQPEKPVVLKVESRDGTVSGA
Chain of CYP2D6 (P10635 whole entry): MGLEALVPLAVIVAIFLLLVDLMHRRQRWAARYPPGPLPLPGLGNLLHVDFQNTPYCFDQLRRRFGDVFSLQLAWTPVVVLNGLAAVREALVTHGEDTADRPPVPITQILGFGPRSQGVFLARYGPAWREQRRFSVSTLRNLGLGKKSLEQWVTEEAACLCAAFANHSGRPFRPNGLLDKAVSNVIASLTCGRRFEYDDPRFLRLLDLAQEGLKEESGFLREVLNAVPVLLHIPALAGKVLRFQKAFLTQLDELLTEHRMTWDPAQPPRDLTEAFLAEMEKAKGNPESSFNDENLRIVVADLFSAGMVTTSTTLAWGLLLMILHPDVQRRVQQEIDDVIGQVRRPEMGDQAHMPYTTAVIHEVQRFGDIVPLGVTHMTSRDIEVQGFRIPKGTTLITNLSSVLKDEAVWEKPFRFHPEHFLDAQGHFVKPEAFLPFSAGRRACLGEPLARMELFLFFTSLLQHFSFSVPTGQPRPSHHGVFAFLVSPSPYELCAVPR
Chain of P-glycoprotein (P-gp) (P08183 whole entry): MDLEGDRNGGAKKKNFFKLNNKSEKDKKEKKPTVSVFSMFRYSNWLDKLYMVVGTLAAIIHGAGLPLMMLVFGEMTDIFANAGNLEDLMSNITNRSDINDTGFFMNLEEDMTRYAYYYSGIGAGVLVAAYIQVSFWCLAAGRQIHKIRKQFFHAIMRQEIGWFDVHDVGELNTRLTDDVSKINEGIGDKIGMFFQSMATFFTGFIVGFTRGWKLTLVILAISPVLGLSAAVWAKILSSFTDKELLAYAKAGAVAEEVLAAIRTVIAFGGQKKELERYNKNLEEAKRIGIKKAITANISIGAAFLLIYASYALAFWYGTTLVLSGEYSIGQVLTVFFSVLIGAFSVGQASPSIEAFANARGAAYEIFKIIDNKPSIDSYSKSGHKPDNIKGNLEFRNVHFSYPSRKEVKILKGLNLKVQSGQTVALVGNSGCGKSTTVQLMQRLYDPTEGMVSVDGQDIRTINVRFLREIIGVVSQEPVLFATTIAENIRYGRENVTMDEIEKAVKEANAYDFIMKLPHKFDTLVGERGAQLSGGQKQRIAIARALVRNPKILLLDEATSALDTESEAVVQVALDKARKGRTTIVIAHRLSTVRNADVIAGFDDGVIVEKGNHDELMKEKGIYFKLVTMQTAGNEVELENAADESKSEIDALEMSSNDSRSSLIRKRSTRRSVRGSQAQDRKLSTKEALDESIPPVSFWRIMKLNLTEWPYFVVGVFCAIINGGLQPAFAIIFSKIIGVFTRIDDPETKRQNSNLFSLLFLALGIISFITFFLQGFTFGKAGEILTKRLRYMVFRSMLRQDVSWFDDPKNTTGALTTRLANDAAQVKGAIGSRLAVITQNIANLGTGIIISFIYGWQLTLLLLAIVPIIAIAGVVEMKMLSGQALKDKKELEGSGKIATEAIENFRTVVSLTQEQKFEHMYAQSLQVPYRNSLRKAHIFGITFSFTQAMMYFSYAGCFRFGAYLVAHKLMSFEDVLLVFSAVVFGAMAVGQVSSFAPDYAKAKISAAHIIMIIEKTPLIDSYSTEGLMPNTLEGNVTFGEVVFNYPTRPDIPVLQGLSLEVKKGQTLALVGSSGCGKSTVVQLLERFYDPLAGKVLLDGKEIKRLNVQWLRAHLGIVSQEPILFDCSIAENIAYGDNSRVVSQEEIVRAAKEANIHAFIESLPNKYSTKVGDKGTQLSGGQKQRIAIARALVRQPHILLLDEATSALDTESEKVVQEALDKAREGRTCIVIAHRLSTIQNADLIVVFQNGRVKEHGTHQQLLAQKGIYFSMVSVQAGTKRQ

`CCCCCn1nc(C(=O)NC23CC4CC(CC(C4)C2)C3)c2ccccc21` [APINACA, N-(1-adamantyl)-1-pentyl-1H-indazole-3-carboxamide] was tested. Which “inactivation efficiency (kinact/Ki) for time-dependent inhibition of CYP3A4” value (CYP3A4; human liver microsomes) did it give?
Its value is 173 M⁻¹ s⁻¹.

What about the kinact (CYP3A4; pH 7.4, probe midazolam 2 μM (1′-hydroxylation), ultrapooled human liver microsomes, time-dependent inhibition, read-out: kinact for time-dependent inhibition of CYP3A4-catalyzed midazolam 1′-hydroxylase (converted)) of the same compound?
The kinact was 0.000781 s⁻¹.

And the IC50 (CYP2A6)?
Its IC50 is over 100 µM.

What about the IC50 (CYP2A6; read-out: IC50 (μM) With Preincubation, CYP2A6 coumarin 7-hydroxylase, ultrapooled human liver microsomes, 30-min preincubation with NADPH) of the same compound?
The IC50 was over 100 µM.

And the IC50 (UGT1A1)?
Its IC50 is over 100 µM.

What about the IC50 (UGT1A1; read-out: IC50 UGT1A1 SN-38 glucuronidation, with 30-min preincubation, pooled human liver microsomes, 30-min preincubation with UDPGA (○)) of the same compound?
Its IC50 is over 100 µM.

And the IC50 (CYP2D6)?
Its IC50 is over 100 µM.

And the IC50 (CYP2D6; read-out: IC50 (μM) With Preincubation, CYP2D6 bufuralol 1′-hydroxylase, ultrapooled human liver microsomes, 30-min preincubation with NADPH)?
Its IC50 is over 100 µM.

And the IC50 (CYP2C9; IC50 (μM) No Preincubation, 10 μM diclofenac, no preincubation)?
Its IC50 is over 100 µM.

What about the IC50 (CYP2C9; IC50 (μM) With Preincubation, 30-min preincubation with NADPH) of the same compound?
Its IC50 is 85 µM.

What about the IC50 at 15 min (CYP2C9; human, microsomes, pH 7.4, IC50 (μM) With Preincubation, 30-min preincubation with NADPH) of the same compound?
The IC50 at 15 min was over 100 µM.

What about the IC50 (P-glycoprotein (P-gp)) of the same compound?
The IC50 was over 100 µM.
